Data set [1] concerns the target T1, CXCR4 (Jurkat cells expressing CXCR4) (Homo sapiens, UniProt P61073).
T1 construct: Jurkat cells expressing CXCR4; endogenous in cells; host or cells: Jurkat
Briefly: Chemokine (CXCL12-AF647) binding inhibition assay. The settings on record: CXCL12-AF647 25 ng/mL, read-out: IC50 CXCL-12 binding Jurkat. On the procedure: Chemokine (CXCL12-AF647) Binding Inhibition Assay
Jurkat cells expressing CXCR4 were washed once with assay buffer (Hanks' balanced salt solution with 20 mM HEPES buffer and 0.2% bovine serum albumin, pH 7.4) and then incubated for 15 min at room temperature with the test compounds diluted in assay buffer at dose-dependent concentrations. Subsequently, CXCL12-AF647 (25 ng/mL) was added to the compound-incubated cells. The cells were incubated for 30 min at room temperature. Thereafter, the cells were washed twice in assay buffer, fixed in 1% paraformaldehyde in PBS, and analyzed on the FL4 channel of a FACSCalibur flow cytometer equipped with a 635-nm red diode laser (Becton Dickinson, San Jose, Calif., USA).
The percentages of inhibition of CXCL12-AF647 binding were calculated according to the formula: [1−((MFI−MFINC)/(MFIPC−MFINC))]×100 where MFI is the mean fluorescence intensity of the cells incubated with CXCL12-AF647 in the presence of the inhibitor, MFINC is the mean fluorescence intensity measured in the negative control (i.e., autofluorescence of unlabeled cells), and MFIPC is the mean fluorescence intensity of the positive control (i.e., cells exposed to CXCL12-AF647 alone).

For the next data set, the target named is T2, CXCR4 (U87.CXCR4 cells) (Homo sapiens, UniProt P61073).
T2 construct: expressed in transfected cells; host or cells: U87 (U87.CXCR4)
T2 sequence (P61073 whole entry): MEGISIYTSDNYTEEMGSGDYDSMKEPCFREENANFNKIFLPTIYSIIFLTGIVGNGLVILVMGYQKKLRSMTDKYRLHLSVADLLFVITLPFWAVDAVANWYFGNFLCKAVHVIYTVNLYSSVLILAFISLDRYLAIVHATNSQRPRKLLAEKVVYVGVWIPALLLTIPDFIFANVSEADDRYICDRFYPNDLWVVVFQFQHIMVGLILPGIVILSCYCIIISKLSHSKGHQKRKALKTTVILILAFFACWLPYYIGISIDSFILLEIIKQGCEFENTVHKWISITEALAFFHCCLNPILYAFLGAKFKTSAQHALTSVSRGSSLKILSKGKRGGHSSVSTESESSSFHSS
Briefly: Intracellular CXCL-12-induced calcium mobilization assay (FLIPR). It is filed as cell-based. The following applies: CXCL-12 25-50 ng/mL, read-out: IC50 CXCL-12 Ca2+ flux U87.CXCR4+. On the procedure:
Intracellular CXCL-12-Induced Calcium Mobilization Assay
Intracellular calcium mobilization induced by chemokines or chemokine-derived peptides were evaluated using a calcium responsive fluorescent probe and a FLIPR system. The CXCR-4 transfected U87 cell line (U87.CXCR4) cells were seeded in gelatine-coated black-wall 96-well plates at 20,000 cells per well and incubated for 12 hours. Cells were then loaded with the fluorescent calcium probe Fluo-2 acetoxymethyl at 4 μM final concentration in assay buffer (Hanks' balanced salt solution with 20 mM HEPES buffer and 0.2% bovine serum albumin, pH 7.4) for 45 min at 37° C. The intracellular calcium mobilization induced by the CXCL-12 (25-50 ng/mL) was then measured at 37° C. by monitoring the fluorescence as a function of time in all the wells simultaneously using a fluorometric imaging plate reader (FLIPR Tetra, Molecular Devices).

The nature of another data set: in vitro. The settings on record: human, Caco-2, pH 7.4. The protocol: The goal of this assay was to evaluate the intestinal absorption potential of drug candidates using Caco-2 cell lines.
1. Prewarm Prewarm HBSS Buffer in 37° C. water bath
2. Sonicate Take compounds from −20° C., sonicate for a few minutes (no less than 1 minute)
• Donor solution buffer: For A-to-B Direction: HBSS buffer with 0.3% DMSO and 5 μM LY: add 150 μL DMSO and 50 μL LY (5 mM) into 50 ml HBSS buffer (pH 7.4). HBSS buffer with 0.1% DMSO and 5 μM LY: add 50 μL DMSO and 50 μL LY (5 mM) into 50 mL HBSS buffer (pH 7.4). For B-to-A Direction: HBSS buffer with 0.3% DMSO: add 150 μL DMSO into 50 ml HBSS buffer (pH 7.4). HBSS buffer with 0.1% DMSO: add 50 μL DMSO into 50 ml HBSS buffer (pH 7.4). Receiver Solution Buffer: For A-to-B Direction: Prepare HBSS buffer with 0.4% DMSO: add 200 μL DMSO into 50 ml HBSS buffer (pH 7.4). For B-to-A Direction: Prepare HBSS buffer with 0.4% DMSO and 5 μM LY: add 200 μL DMSO and 50 μL LY (5 mM) into 50 ml HBSS buffer (pH 7.4).
4. Measure TEER Take cell culture plate out of incubator, wash the cell monolayers with HBSS buffer, and then measure TEER values at Rm temperature. 5. Centrifuge Centrifuge the compound solution (from step 3) at 4000 rpm for 5 min before loading to donor chambers. 6. Dosing Add solution based on the volumes listed in the following table (make sure to take extra 100 μL of donor sample for TO as Backup).
7. Apical LYT0 samples To determine LY concentration in the apical chamber, take 100 μL sample from apical chambers into an opaque plate for LYT0. 8. Prewarm Prewarm apical and basolateral plates at 37° C. for about 5 min, then begin transport by placing the apical plate onto basolateral plate. 9. Incubation Keep the plates in incubator at 37° C. for 90 min. 10.
Prepare Working Solution in MeOH/H2O (1:1)
• Prepare 1×solution: 3 μL (20×)+57 μL of 0.4% DMSO HBSS+60 μL ACN with IS (Osalmid or Imipramine)−120 μL (1×) 11. Transport termination Separate the apical plate from the basolateral plate after 90-min incubation. 12. Measure LY Take 100 μL samples from basolateral plate to an opaque plate as LYT90. 13. Measure LY concentrations for LYT0 and LYT90 by Fluorometer (at excitation of 485 nm/emission of 535 nm). 14.
Study details: Test concentration 10 μM
Test systems: Caco-2/HBSS solution
Incubation conditions: 0, 90 min at 37° C.
Sample size: Duplicates (n=2)
Bioanalytical method: LC-MS/MS
For Millicell-24 Cell Culture Plates: surface area of the membrane=0.7 cm^2, VA=0.8 mL (A-to-B) or 0.4 mL (B-to-A)
The compound numbers correspond to the compound numbers in Table 1.

A word on the IC50: it is the midpoint of a concentration-inhibition curve. In general, Papp A→B refers to how fast a substance crosses the layer from the apical side. For orientation: Papp B→A means the apparent permeability from the basolateral to the apical side of a cell layer. What is called efflux ratio is the permeability from basolateral to apical divided by that in the opposite direction, in the common usage.

T1 sequence (P61073 whole entry): as above

Regarding `Cc1cccnc1C1CCCN1Cc1nc2cccc(N3CCN(C)CC3)n2c1CO` (stereo not drawn) [Compound I-8, (5-(4-methylpiperazin-1-yl)-2-((2-(3-methylpyridin-2-yl)pyrrolidin-1-yl)methyl)imidazo[1,2-a]pyridin-3-yl)methanol], the IC50 in data set [1] lay in the range of 0.01 to 100 nM. The IC50 at CXCR4 (U87.CXCR4 cells) fell in the range of 100 to 1000 nM. Moreover, in the data set “in vitro”, the Papp A→B at 90 min, 10 μM is 0.1 to 10 ×10⁻⁶ cm/s; the Papp B→A at 90 min, 10 μM lay within 10 to 30 ×10⁻⁶ cm/s; the efflux ratio at 90 min, 10 μM was greater than 30.

As for `Cc1cccnc1C1CCCN1Cc1nc2c(N3CCN(C)CC3)cccc2[nH]1` (stereo not drawn) [Compound I-11], the concentration for half-maximal inhibition (IC50) in data set [1] lay within 0.01 to 100 nM. Besides, the IC50 on CXCR4 (U87.CXCR4 cells) is 0.01 to 100 nM. In the data set “in vitro”, the Papp A→B at 90 min, 10 μM was 0.1 to 10 ×10⁻⁶ cm/s; the Papp B→A at 90 min, 10 μM lay within 10 to 30 ×10⁻⁶ cm/s; the efflux ratio at 90 min, 10 μM was in the range of 0.1 to 10.

As for `CN1CCN(c2cccc3nc(CN4CCCC4c4nccc5ccccc45)cn23)CC1` (stereo not drawn) [Compound I-14], in data set [1], the IC50 fell in the range of 0.01 to 100 nM. The IC50 at CXCR4 (U87.CXCR4 cells) was in the range of 100 to 1000 nM. For the same compound, in “in vitro”, the Papp A→B at 90 min, 10 μM is 0.1 to 10 ×10⁻⁶ cm/s; the Papp B→A at 90 min, 10 μM was in the range of 10 to 30 ×10⁻⁶ cm/s; the efflux ratio at 90 min, 10 μM lay in the range of 0.1 to 10.

As for `CN1CCN(c2cccc3nc(CN4CCCC4c4ncccc4Cl)cn23)CC1` (stereo not drawn) [Compound I-27], the IC50 in data set [1] was 0.01 to 100 nM. The IC50 at CXCR4 (U87.CXCR4 cells) was 100 to 1000 nM. Besides, in the data set “in vitro”, the Papp A→B at 90 min, 10 μM lay in the range of 0.1 to 10 ×10⁻⁶ cm/s; the Papp B→A at 90 min, 10 μM fell in the range of 10 to 30 ×10⁻⁶ cm/s; the efflux ratio at 90 min, 10 μM lay in the range of 0.1 to 10.

In the case of `Cc1cccnc1C1CCCN1Cc1nc2cccc(N3CCN(C)C4(CC4)C3)c2[nH]1` (stereo not drawn) [Compound I-28], the IC50 in data set [1] was 100 to 1000 nM. Moreover, the IC50 on CXCR4 (U87.CXCR4 cells) was in the range of 100 to 1000 nM. In the data set “in vitro”, the Papp A→B at 90 min, 10 μM was in the range of 0.1 to 10 ×10⁻⁶ cm/s; the Papp B→A at 90 min, 10 μM was in the range of 10 to 30 ×10⁻⁶ cm/s; the efflux ratio at 90 min, 10 μM lay in the range of 0.1 to 10.

In the case of `Cc1cccnc1C1CCCN1Cc1cn2c(N3CCN(C4CC4)CC3)cccc2n1` (stereo not drawn) [Compound I-32], the IC50 in data set [1] was in the range of 100 to 1000 nM. On CXCR4 (U87.CXCR4 cells), the IC50 was in the range of 100 to 1000 nM. Besides, in “in vitro”, the Papp A→B at 90 min, 10 μM is 0.1 to 10 ×10⁻⁶ cm/s; the Papp B→A at 90 min, 10 μM lay in the range of 10 to 30 ×10⁻⁶ cm/s; the efflux ratio at 90 min, 10 μM lay in the range of 0.1 to 10.

On to `Cc1cccnc1C1CCCN1Cc1nc2cccc(N3CCN(C)CC3)n2c1F` (stereo not drawn) [Compound I-34], for which, in data set [1], the IC50 is 100 to 1000 nM. Moreover, on CXCR4 (U87.CXCR4 cells), the IC50 was in the range of 100 to 1000 nM. Besides, in “in vitro”, the Papp A→B at 90 min, 10 μM is 0.1 to 10 ×10⁻⁶ cm/s; the Papp B→A at 90 min, 10 μM was in the range of 10 to 30 ×10⁻⁶ cm/s; the efflux ratio at 90 min, 10 μM lay in the range of 0.1 to 10.

Regarding `CN1CCN(c2cccc3nc(CN4CCCC4c4ncccc4Cl)c(F)n23)CC1` (stereo not drawn) [Compound I-35], the IC50 in data set [1] lay in the range of 100 to 1000 nM. The IC50 at CXCR4 (U87.CXCR4 cells) was no less than 1000 nM. Moreover, in the data set “in vitro”, the Papp A→B at 90 min, 10 μM was in the range of 0.1 to 10 ×10⁻⁶ cm/s; the Papp B→A at 90 min, 10 μM lay in the range of 10 to 30 ×10⁻⁶ cm/s; the efflux ratio at 90 min, 10 μM is 0.1 to 10.

For the compound `Cc1cccnc1C1CCCN1Cc1nccn1C1CCN(C)CC1` (stereo not drawn) [Compound I-36], the IC50 in data set [1] lay within 100 to 1000 nM. In addition, the IC50 at CXCR4 (U87.CXCR4 cells) was no less than 1000 nM. Moreover, in “in vitro”, the Papp A→B at 90 min, 10 μM fell in the range of 0.1 to 10 ×10⁻⁶ cm/s; the Papp B→A at 90 min, 10 μM was greater than 30 ×10⁻⁶ cm/s; the efflux ratio at 90 min, 10 μM was 0.1 to 10.

Turning to `Cc1cccnc1C1CCCN1Cc1nc2cccc(N3CCN(C)CC3)c2s1` (stereo not drawn) [Compound I-37], in data set [1], the IC50 was 100 to 1000 nM. Moreover, the IC50 at CXCR4 (U87.CXCR4 cells) is no less than 1000 nM. In “in vitro”, the Papp A→B at 90 min, 10 μM fell in the range of 10 to 30 ×10⁻⁶ cm/s; the Papp B→A at 90 min, 10 μM lay within 10 to 30 ×10⁻⁶ cm/s; the efflux ratio at 90 min, 10 μM was in the range of 0.1 to 10.

For the compound `Cc1cccnc1C1CCCN1Cc1ccccn1` (stereo not drawn) [Compound I-39], the IC50 in data set [1] was in the range of 100 to 1000 nM. At CXCR4 (U87.CXCR4 cells), the IC50 was no less than 1000 nM. In the data set “in vitro”, the apical-to-basolateral permeability (Papp A→B) at 90 min, 10 μM is 10 to 30 ×10⁻⁶ cm/s; the Papp B→A at 90 min, 10 μM lay within 10 to 30 ×10⁻⁶ cm/s; the efflux ratio at 90 min, 10 μM fell in the range of 0.1 to 10.

Regarding `Cc1cccnc1C1CCCN1Cc1nc2ccccn2c1N1CCN(C)CC1` (stereo not drawn) [Compound I-40], the IC50 in data set [1] lay within 0.01 to 100 nM. Besides, at CXCR4 (U87.CXCR4 cells), the IC50 lay in the range of 0.01 to 100 nM. In “in vitro”, the Papp A→B at 90 min, 10 μM fell in the range of 0.1 to 10 ×10⁻⁶ cm/s; the Papp B→A at 90 min, 10 μM was greater than 30 ×10⁻⁶ cm/s; the efflux ratio at 90 min, 10 μM lay in the range of 10 to 30.
